Results: US12344852B2, “Control of phenotype in plants” (GREENVENUS, LLC, priority 2016, dated 2025)

Experiments:
[1] = system: EcR-based gene switch (IP:GFP, ID38) in transgenic Arabidopsis leaf samples; experiment: Ligand-induced GFP expression in leaf samples of IP:GFP (ID38) transgenic plants; format: cell-based; details: leaf samples of IP:GFP plants on media containing ligand, 24 hr; not induced in wt control
Source text: Transform wild type Arabidopsis to introduce inducible GFP reporter: DNA construct ID38, which is shown diagrammatically in FIG. 1A, may be used to transform wild type (wt) Arabidopsis. […]
GFP gene will not be expressed until methoxyfenozide (activator ligand—AL) is provided to mobilize the activator proteins for binding to the GAL4-RE and switching on the IP. […] Since GFP expression can be conveniently monitored in live plants under a fluorescence microscope, the transgenic Arabidopsis can be used to study the dosage, timing, and half life time of the ligand application. […]
Briefly, the DNA constructs shown in FIG. 1 were built following standard molecular cloning procedures and transformed into disarmed Agrobacterium tumefaciens strain AGL1. […] Selected transgenic plants were analyzed by quantitative PCR (qPCR) and PCR to check transgene copy numbers and transgene intactness. […]

[2] = system: Barnase/IP:Barstar (ID06) transgenic Arabidopsis plants; experiment: Restoration of flowering in Barnase/IP:Barstar (ID06) transgenic plants by ligand spray; format: in vivo; details: for B/FS:B plants that developed flowers: T2 ID06 plants, end of experiment day 51
Source text: A vector ID06, illustrated diagrammatically in FIG. 11, was constructed to provide constant expression of the barnase ribonuclease from Bacillus amyloliquefaciens in flower primordia to suppress flowering. The DNA construct (ID06) was transformed into wild type Arabidopsis by flower dipping method. T1 seeds were harvested and germinated in soil. Seven day old T1 seedlings were sprayed with LIBERTY® 280SL herbicide and 37 transgenic plants resistant to the herbicide survived. Transformants were analyzed by quantitative PCR (qPCR) to check transgene copy numbers. Thirteen percent of transgenic events contained only one copy of the transgene. All events were grown in growth chambers to evaluate phenotypes. The transgenic plants containing ID06 DNA construct should express the cytotoxic ribonuclease barnase in flower primordia which prevents formation of flowers. […] Instead of flowers, the Barnase/IP:Barstar plants have elongated small leaves that could have derived from sepals as shown in the inset picture of FIG. 12B.
The seven week old non-flowering plants were then sprayed with the ligand methoxyfenozide (2.5 μM) to turn on barstar expression and restore flowering. Ligand applications were performed every other day until all flowers had developed. […] T2 seeds were harvested for further evaluation of the transgenic lines on T2 plants.
Multiple T2 plants from six independent single copy transgenic ID06 events along with wt arabidopsis control plants were grown for three weeks. At three weeks plants from each line were divided in 3 treatment groups of 12 plants in each. The treatment was applied every other day for 30 days. The plants in group A were sprayed with plain water, in group B—with 50 nM solution of methoxyfenozide, and in group C—with 250 nM solution of methoxyfenozide. Before start of the treatment leaf tissue was collected from each plant for DNA extraction and genotype assessment by qPCR to identify homozygous, heterozygous and null segregant plants.
Plants were assessed as to whether they ever flowered (yes/no at the end of experiment, day 51) and the time to start flowering defined as the number of days after the first application of methoxyfenozide (days post-treatment: DPT) until the first flower bud appears. […] All the null segregants and wild-type plants flowered irrespectively of whether or not they were sprayed with methozyfenozide.

Botrytis cinerea = experiment: Ligand inducible disease resistance screening of detached petunia leaves; format: in vivo
Procedure: Botrytis cinerea isolation and inoculation. The plant pathogen was isolated from diseased strawberries displaying typical symptomology. A single spore colony was isolated using standard plant pathology methodologies and the ITSI—5.8S rDNA—ITSII locus was amplified and sequenced to validate its identity. The isolate used is 100% identical to more than 20 previously reported B. cinerea isolates in Genbank. For plant inoculation B. cinerea was grown on V8 Agar media under fluorescent light for 2 weeks until the typical grey mass of aerial spores was visible. A section of the colony was placed into 10 mL of sterile DI water and vortexed vigorously to dislodge spores. The resulting solution was filtered through a 70 micron mesh to yield a homogenous spore solution free of mycelia and agar media. The spore solution was spun down and washed 3× in sterile DI water and quantified using a hemocytometer. The solution was diluted in sterile DI water to a final concentration of 200,000 spores/ml. For petunia inoculations, detached leaves were wounded with a sterile forceps (approximately 0.5 mm abrasion) and the wounded site was inoculated with 10 μL of spore solution (2,000 spores/inoculation site). Three leaves/treatment and three wound sites/leaf were inoculated with spore solution for each assay. […]

COc1cccc(C(=O)NN(C(=O)c2cc(C)cc(C)c2)C(C)(C)C)c1C [methoxyfenozide, 3-methoxy-2-methylbenzoic acid 2-(3,5-dimethylbenzoyl)-2-(1,1-dimethylethyl)hydrazide]
concentration at which GFP expression was induced [1]: ≤ 16 nM
flowering of Barnase/Barstar plants ([2]; 2.5 μM ligand, FIG. 12 Panel C): flowering
B/FS:B plants that developed flowers ([2]; 50 nM sprayed every other day for 30 days): 56 of 57
B/FS:B plants that developed flowers ([2]; 250 nM sprayed every other day for 30 days): 50 of 52
delay in the time to start flowering between ligand-treated transgenic (ID06) and non-transgenic plants ([2]; T2 plants, 50 nM or 250 nM): 8 to 10 days
minimal effective concentration on flowering ([2]; same effect at 50 nM and 250 nM solution): lower than 50 nM
time after ligand application until flower buds and flowers appear ([2]; seven week old non-flowering T1 plants, 2.5 μM sprayed every other day): seven
disease resistance of Switch-DCL1/DCL2/GUS hairpin line (Botrytis cinerea; leaves on 50 uM in 1% phytoagar, inoculated after 3 days, read 7 days after pathogen inoculation): ligand induced disease resistance
disease resistance of constitutive DCL-25 (+ control) and non-specific dsRNA line (− control) (Botrytis cinerea; presence or absence of 50 uM ligand): no change in disease resistance
